Consider 1 molecule from patent publication US8044103B2, “Cyclic dipeptides and azetidinone compounds and their use in treating CNS injury and neurodegenerative disorders” (Georgetown University, priority 1998, dated 2011).

The test system of test [1] is mice following controlled cortical impact injury (CCI). The test is described as follows: Morris watermaze, working memory version, after controlled cortical impact injury. It counts as in vivo, Male C57Bl/6 mice. Particulars: 1.0 mg/kg at 30 min following CCI; day 24 after trauma; p<0.05. The protocol: FIG. 7 provides a graph illustrating the latency of finding a hidden platform in a working memory version of the Morris watermaze for uninjured control mice (sham+saline) and mice treated with normal saline (CCI+saline) or 1.0 mg/kg Compound 2a (CCI+Compound 2a) at 30 min. following controlled cortical injury (CCI). Filled bars (▪) represent the first of two consecutive trials; unfilled bars ( ? ) represent the second of two consecutive trials. Results are expressed as daily means±SEM for each group over four trial pairs. * indicates p<0.05 with respect to uninjured controls (sham+saline); # indicates p<0.05 with respect to injured saline-treated controls (CCI+saline).
Conscious mice were placed in a mouse restrainer and injected via the lateral tail vein with either normal saline (injured controls; n=6), 1 mg/kg Compound 2a (n=8), Compound 10b (n=6), Compound 11b (n=6) or Compound 14c (n=6) at 30 minutes following controlled cortical impact injury (CCI). The values for n represents the number of mice in the particular treatment group. The investigator was blinded to drug treatment both at the time of surgery and for neurological and behavioral scoring.
To determine the effect of CCI on working memory, the daily mean latency (+SEM) to find the goal platform on both trials was calculated for each group. […]

For test [2] the test system is unchanged. Briefly: Morris watermaze, place learning version, after controlled cortical impact injury. It is filed as in vivo, Male C57Bl/6 mice. The protocol: Male C57Bl/6 mice (20-25 g) were obtained from Taconic Farms (Germantown, N.Y.) and housed in an area directly adjoining surgical and behavioral rooms for at least 1 week prior to any procedures. All mice were maintained at a constant temperature (22±2° C.) and a 12 hr light/dark cycle, with lights on at 6 am and all behavioral testing performed during the light cycle. Food and water were available ad libitumn.
Surgical anesthesia was induced and maintained with 4% and 2% isoflurane respectively, using a flow rate of 1.0-1.5 l oxygen per minute. Depth of anesthesia was assessed by monitoring respiration rate and palpebral and pedal-withdrawal reflexes. The animal was then placed onto a heated pad and core body temperature was monitored and maintained at 38+/−0.2° C. The head was mounted in a stereotaxic frame and the surgical site clipped and prepared with a series of three Nolvasan scrubs followed by sterile saline rinses. A 10 mm mid-line incision was made over the skull, the skin and fascia reflected, and a 4 mm craniotomy made on the central aspect of the left parietal bone with a tissue punch (Roboz, USA). Great care was taken with the removal of the parietal bone to avoid injury to the underlying dura mater which was continuously bathed in sterile normal saline warmed to 37.5° C. The impounder tip of the pneumatic injury device was cleaned with a pad, soaked in absolute alcohol, positioned to the surface of the exposed dura and automatically withdrawn the 44 mm stroke distance. Following injury at a moderate (6.0 m/s velocity, 1 mm tissue deformation depth) level, the incision was closed with interrupted 6-0 silk sutures, anaesthesia was discontinued and the mouse was placed into a heated cage to maintain normothermia for 45 minutes post-injury. All animals were monitored carefully for at least 4 hours post-surgery and then daily. To minimize variation between animals due to anaesthesia during acute neurological testing, 20 minutes was allowed for surgery and 5 minutes for suturing for each animal.
[…] The values for n represents the number of mice in the particular treatment group. The investigator was blinded to drug treatment both at the time of surgery and for neurological and behavioral scoring.
The Morris watermaze (Morris, 1984, J. Neurosci. Meth. 22:47-60) is employed to assess spatial learning by training mice to locate a hidden, submerged platform using extramaze visual information. The apparatus consists of a large, white circular pool (900 mm diameter, 500 mm high, water temperature 24±1° C.) with a plexiglass platform 76 mm diameter painted white and submerged 15 mm below the surface of water (225 mm high) which is rendered opaque with the addition of dilute, white, non-toxic paint. During training, the platform is hidden in one quadrant 14 cm from the side wall. The mouse is gently placed into the water facing the wall at one of four randomly-chosen locations separated by 90 degrees. The latency to find the hidden platform within a 90 second criterion time is recorded by a blinded observer. […]
Continuous variables compared across groups are examined using an analysis of variance (ANOVA) followed by Bonferroni correction (acute reflexes). Continuous variables subjected to repeated measurements over a period of time (beam walking, Morris water maze) are analyzed using a repeated measurements ANOVA followed by Tukey's pairwise comparison at each time point. […]

For `O=C1NC2(CCCCC2)C(=O)N2CCC[C@@H]12` [Compound 2a, Cyclo[(1-Amino-1-Cyclohexane-Carboxylic Acid)-Pro]], in test [1], the “latency to goal platform, first of trial pair (reference memory), versus untreated injured animals” value was “significantly improved” and the “latency to goal platform, second of trial pair (working memory), versus untreated injured animals” value is “significantly improved”. For the same molecule, the “latency to find hidden platform (place learning) versus sham-operated controls, day 8” value in test [2] (1.0 mg/kg at 30 min following CCI, day 8, p<0.001) is “significantly different from sham-operated controls”. For the same molecule, in test [2] (1.0 mg/kg at 30 min following CCI, day 9 (third day of training), p>0.05, out-performing saline-treated), the “latency to find hidden platform (place learning) versus sham-operated controls, day 9” value is reported as “no longer significantly different from sham-operated controls”. For the same molecule, the “latency to find goal platform (place learning) versus saline-treated injured mice, last day of training” value in test [2] (1.0 mg/kg at 30 min following CCI, day 10, p<0.01) is “significantly improved latencies”. Besides, the “place-learning compared with saline-treated controls (CCI+saline), dose-response experiments” value in test [2] (0.1, 1.0 or 10.0 mg/kg at 60 min following CCI, 10 days post-surgery, all treatment groups) is reported as “improved place-learning”. In addition, the “dose giving the most improved learning (place learning watermaze)” value in test [2] (0.1, 1.0 or 10.0 mg/kg at 60 min following CCI, by 10 days post-surgery) is given as 10 mg/kg.
